Tests used:
α-glucosidase = α-glucosidase (Saccharomyces cerevisiae, UniProt P53341); assay: α-Glucosidase assay; assay type: biochemical; details: for α-glucosidase inhibition, inhibition (%) at 0.5 mM / IC50: mean ± SEM, triplicate; for IC50: read-out: α-glucosidase inhibition, IC50
LOX = target: T1, LOX (Glycine max, UniProt P08170); assay: Lipoxygenase assay; assay type: biochemical; details: mean ± SEM, triplicate; for IC50: read-out: LOX inhibition, IC50
T1 sequence (P08170 1-839): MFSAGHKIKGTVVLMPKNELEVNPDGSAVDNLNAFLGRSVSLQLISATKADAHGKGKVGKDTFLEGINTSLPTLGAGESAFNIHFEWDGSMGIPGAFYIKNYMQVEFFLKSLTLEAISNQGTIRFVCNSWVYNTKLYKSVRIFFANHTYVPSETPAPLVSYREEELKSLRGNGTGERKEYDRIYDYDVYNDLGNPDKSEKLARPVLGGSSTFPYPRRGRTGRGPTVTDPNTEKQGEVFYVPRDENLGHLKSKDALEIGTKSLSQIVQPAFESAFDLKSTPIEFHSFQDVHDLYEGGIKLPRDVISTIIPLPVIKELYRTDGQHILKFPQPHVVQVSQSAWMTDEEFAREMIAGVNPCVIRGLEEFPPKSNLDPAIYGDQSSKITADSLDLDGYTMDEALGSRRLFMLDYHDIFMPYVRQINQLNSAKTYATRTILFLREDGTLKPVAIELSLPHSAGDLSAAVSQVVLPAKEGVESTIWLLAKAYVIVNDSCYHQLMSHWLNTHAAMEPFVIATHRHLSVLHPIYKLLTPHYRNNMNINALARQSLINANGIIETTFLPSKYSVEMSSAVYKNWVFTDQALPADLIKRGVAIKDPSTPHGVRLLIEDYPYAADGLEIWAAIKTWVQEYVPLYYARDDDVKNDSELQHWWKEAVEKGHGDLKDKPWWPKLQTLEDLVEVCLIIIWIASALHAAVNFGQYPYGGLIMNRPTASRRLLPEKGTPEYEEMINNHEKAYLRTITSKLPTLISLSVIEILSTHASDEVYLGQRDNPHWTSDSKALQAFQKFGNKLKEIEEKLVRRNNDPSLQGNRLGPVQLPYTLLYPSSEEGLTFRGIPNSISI

AChE = AChE (Homo sapiens, UniProt P22303); details: for AChE inhibition, inhibition (%) at 0.5 mM / IC50: mean ± SEM, triplicate; for IC50: read-out: AChE inhibition, IC50
urease = urease (Canavalia ensiformis, UniProt P07374); details: mean ± SEM, triplicate; for IC50: read-out: urease inhibition, IC50
BChE = BChE (Homo sapiens, UniProt P06276); details: mean ± SEM, triplicate; for IC50: read-out: BChE inhibition, IC50
BChE, sequence (P06276 29-602, species assumed): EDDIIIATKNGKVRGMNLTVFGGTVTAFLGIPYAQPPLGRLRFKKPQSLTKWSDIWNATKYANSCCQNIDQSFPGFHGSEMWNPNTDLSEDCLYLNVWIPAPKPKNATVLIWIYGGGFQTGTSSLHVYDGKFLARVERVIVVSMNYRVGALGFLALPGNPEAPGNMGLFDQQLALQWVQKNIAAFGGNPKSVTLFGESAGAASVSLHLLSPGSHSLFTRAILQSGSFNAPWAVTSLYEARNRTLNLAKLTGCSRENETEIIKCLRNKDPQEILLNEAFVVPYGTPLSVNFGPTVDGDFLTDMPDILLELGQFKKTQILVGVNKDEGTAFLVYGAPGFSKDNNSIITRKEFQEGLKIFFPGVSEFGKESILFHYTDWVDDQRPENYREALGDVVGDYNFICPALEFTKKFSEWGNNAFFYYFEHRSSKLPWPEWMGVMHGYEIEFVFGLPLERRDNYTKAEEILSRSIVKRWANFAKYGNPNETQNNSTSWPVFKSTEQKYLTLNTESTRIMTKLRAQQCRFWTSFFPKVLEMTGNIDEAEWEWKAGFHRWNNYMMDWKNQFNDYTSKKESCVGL

AChE, sequence (P22303 32-614): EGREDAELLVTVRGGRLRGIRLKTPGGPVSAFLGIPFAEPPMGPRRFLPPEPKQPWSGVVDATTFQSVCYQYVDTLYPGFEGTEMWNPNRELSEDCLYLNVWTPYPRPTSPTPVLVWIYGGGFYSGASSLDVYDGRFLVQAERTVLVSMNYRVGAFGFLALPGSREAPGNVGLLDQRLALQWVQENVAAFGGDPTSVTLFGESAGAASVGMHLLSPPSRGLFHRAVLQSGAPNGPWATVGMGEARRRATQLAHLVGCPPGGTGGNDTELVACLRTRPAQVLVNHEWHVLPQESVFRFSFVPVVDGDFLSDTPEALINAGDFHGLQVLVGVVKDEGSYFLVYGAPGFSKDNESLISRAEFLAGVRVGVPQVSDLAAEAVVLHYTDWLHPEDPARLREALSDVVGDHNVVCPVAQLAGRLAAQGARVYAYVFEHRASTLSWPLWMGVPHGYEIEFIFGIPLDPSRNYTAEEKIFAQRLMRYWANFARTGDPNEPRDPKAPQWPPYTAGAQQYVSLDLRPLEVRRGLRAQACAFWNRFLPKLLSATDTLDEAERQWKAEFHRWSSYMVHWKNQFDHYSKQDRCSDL
α-glucosidase, sequence (P53341 whole entry): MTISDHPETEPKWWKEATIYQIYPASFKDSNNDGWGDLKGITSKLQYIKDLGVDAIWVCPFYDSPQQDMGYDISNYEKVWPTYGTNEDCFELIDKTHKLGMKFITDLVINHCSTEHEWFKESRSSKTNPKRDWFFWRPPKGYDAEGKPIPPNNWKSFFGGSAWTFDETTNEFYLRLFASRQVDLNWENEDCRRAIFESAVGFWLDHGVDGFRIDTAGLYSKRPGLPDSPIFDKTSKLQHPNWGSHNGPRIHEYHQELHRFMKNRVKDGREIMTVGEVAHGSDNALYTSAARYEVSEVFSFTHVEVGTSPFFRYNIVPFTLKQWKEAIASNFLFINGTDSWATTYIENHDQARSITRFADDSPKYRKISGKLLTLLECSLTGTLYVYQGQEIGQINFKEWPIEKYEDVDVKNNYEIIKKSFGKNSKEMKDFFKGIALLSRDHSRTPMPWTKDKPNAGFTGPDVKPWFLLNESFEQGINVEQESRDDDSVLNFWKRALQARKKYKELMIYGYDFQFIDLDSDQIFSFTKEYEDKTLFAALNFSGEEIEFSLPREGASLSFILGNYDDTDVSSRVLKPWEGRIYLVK
urease, sequence (P07374 whole entry, looked up): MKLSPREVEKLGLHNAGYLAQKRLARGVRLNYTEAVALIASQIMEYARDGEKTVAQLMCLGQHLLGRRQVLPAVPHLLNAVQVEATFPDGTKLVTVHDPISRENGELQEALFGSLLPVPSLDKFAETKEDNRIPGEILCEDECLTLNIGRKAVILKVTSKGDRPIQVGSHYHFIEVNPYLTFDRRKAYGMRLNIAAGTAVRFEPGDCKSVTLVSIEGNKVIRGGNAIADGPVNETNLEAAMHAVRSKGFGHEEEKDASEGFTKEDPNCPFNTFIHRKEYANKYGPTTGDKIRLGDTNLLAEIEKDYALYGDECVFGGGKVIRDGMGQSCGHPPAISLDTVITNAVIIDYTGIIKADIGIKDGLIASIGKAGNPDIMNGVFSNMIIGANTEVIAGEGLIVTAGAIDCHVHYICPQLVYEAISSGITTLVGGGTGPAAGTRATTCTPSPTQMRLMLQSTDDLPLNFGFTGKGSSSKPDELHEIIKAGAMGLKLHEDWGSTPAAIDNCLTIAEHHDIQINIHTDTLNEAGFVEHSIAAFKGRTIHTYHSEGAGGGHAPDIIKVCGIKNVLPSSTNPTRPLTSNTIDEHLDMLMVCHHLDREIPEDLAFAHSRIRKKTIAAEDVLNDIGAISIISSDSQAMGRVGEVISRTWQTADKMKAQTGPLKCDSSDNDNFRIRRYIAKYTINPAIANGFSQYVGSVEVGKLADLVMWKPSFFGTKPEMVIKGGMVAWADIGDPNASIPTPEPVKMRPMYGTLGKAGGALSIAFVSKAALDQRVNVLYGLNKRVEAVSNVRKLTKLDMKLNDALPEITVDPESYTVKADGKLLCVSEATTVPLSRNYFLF

Structure (SMILES) | α-glucosidase inhibition, inhibition (%) at 0.5 mM (α-glucosidase) [%] | IC50 (α-glucosidase) [µM] | LOX inhibition, inhibition (%) at 0.25 mM (LOX) [%] | AChE inhibition, inhibition (%) at 0.5 mM (AChE) [%] | IC50 (AChE) [µM] | urease inhibition, inhibition (%) at 0.25 mM (urease) [%] | BChE inhibition, inhibition (%) at 0.5 mM (BChE) [%] | activity against AChE enzyme (in words) (AChE) | IC50 (BChE) [µM] | IC50 (urease) [µM] | activity against α-glucosidase enzyme (in words) (α-glucosidase) | IC50 (LOX) [µM]
Cc1ccc(S(=O)(=O)N2CCC(c3nnc(SCC(=O)NC4CCCCC4)n3C)CC2)cc1 [Compound 12a, 1-(4-toluenesulfonyl)-4-[3-(N-cyclohexyl-2-ethanamoylthio)-4-methyl-4H-1,2,4-triazol-5-yl] piperidine] | 87.25 ± 1.65 | 135 ± 1.39 | 39.47 ± 0.82 | 52.37 ± 0.78 | 476.3 ± 0.57 | 25.34 ± 1.42 | 21.93 ± 0.62 |  |  |  |  | 
Cc1ccc(S(=O)(=O)N2CCC(c3nnc(SCC(=O)Nc4ccccc4)n3C)CC2)cc1 [Compound 12b, 1-(4-toluenesulfonyl)-4-[3-(N-phenyl-2-ethanamoylthio)-4-methyl-4H-1,2,4-triazol-5-yl] piperidine] | 76.23 ± 1.58 | 264.3 ± 1.24 | 35.25 ± 0.42 | 89.15 ± 0.68 | 85.46 ± 0.45 | 31.23 ± 1.42 | 63.42 ± 0.75 | excellent activity | 279.4 ± 0.59 |  |  | 
Cc1ccc(S(=O)(=O)N2CCC(c3nnc(SCC(=O)Nc4ccccc4C)n3C)CC2)cc1 [Compound 12c, 1-(4-toluenesulfonyl)-4-{3-[N-(2-methylphenyl)-2-ethanamoylthio]-4-methyl-4H-1,2,4-triazol-5-yl} piperidine] | 72.45 ± 1.75 | 327.8 ± 1.57 | 36.47 ± 0.76 | 82.36 ± 0.67 | 134.6 ± 0.53 | 75.45 ± 1.72 | 37.83 ± 0.42 |  |  | 163.8 ± 1.45 |  | 
Cc1ccc(S(=O)(=O)N2CCC(c3nnc(SCC(=O)Nc4cccc(C)c4)n3C)CC2)cc1 [Compound 12d, 1-(4-Toluenesulfonyl)-4-{3-[N-(3-methylphenyl)-2-ethanamoylthio]-4-methyl-4H-1,2,4-triazol-5-yl}{Kumari, 2021 #63} piperidine] | 91.52 ± 1.43 | 36.7 ± 1.24 | 68.34 ± 0.82 | 98.78 ± 0.78 | 0.73 ± 0.54 | 98.22 ± 1.65 | 95.29 ± 0.74 | excellent activity |  | 19.4 ± 1.28 | excellent activity | 32.6 ± 0.42
Cc1ccc(NC(=O)CSc2nnc(C3CCN(S(=O)(=O)c4ccc(C)cc4)CC3)n2C)cc1 [Compound 12e, 1-(4-toluenesulfonyl)-4-{3-[N-(4-methylphenyl)-2-ethanamoylthio]-4-methyl-4H-1,2,4-triazol-5-yl} piperidine] | 72.75 ± 1.58 | 314.6 ± 1.24 | 48.36 ± 0.43 | 87.43 ± 0.77 | 97.86 ± 0.65 | 39.26 ± 1.43 | 96.47 ± 0.76 | excellent activity | 0.053 |  |  | 
CCc1ccccc1NC(=O)CSc1nnc(C2CCN(S(=O)(=O)c3ccc(C)cc3)CC2)n1C [Compound 12f, 1-(4-toluenesulfonyl)-4-{3-[N-(2-ethylphenyl)-2-ethanamoylthio]-4-methyl-4H-1,2,4-triazol-5-yl} piperidine] | 74.95 ± 1.74 | 275.8 ± 1.37 | 62.38 ± 0.75 | 39.62 ± 0.55 |  | 36.35 ± 1.78 | 39.78 ± 0.57 |  |  |  |  | 96.32 ± 0.37
COc1ccccc1NC(=O)CSc1nnc(C2CCN(S(=O)(=O)c3ccc(C)cc3)CC2)n1C [Compound 12g, 1-(4-toluenesulfonyl)-4-{3-[N-(2-methoxyphenyl)-2-ethanamoylthio]-4-methyl-4H-1,2,4-triazol-5-yl} piperidine] | 71.45 ± 1.73 | 267.4 ± 1.52 | 41.55 ± 0.51 | 79.24 ± 0.89 | 149.8 ± 0.67 | 42.87 ± 1.51 | 24.72 ± 0.56 |  |  |  |  | 
CCOc1ccc(NC(=O)CSc2nnc(C3CCN(S(=O)(=O)c4ccc(C)cc4)CC3)n2C)cc1 [Compound 12h, 1-(4-toluenesulfonyl)-4-{3-[N-(4-ethoxyphenyl)-2-ethanamoylthio]-4-methyl-4H-1,2,4-triazol-5-yl} piperidine] | 73.12 ± 1.58 | 286.6 ± 1.25 | 63.53 ± 0.52 | 37.41 ± 0.62 |  | 42.63 ± 1.52 | 16.51 ± 0.35 |  |  |  |  | 92.45 ± 0.26
Cc1ccc(S(=O)(=O)N2CCC(c3nnc(SCC(=O)Nc4cccc(C)c4C)n3C)CC2)cc1 [Compound 12i, 1-(4-toluenesulfonyl)-4-{3-[N-(2,3-dimethylphenyl)-2-ethanamoylthio]-4-methyl-4H-1,2,4-triazol-5-yl} piperidine] | 31.53 ± 1.37 |  | 24.12 ± 0.59 | 82.51 ± 0.85 | 117.4 ± 0.64 | 75.82 ± 1.79 | 36.47 ± 0.75 |  |  | 143 ± 1.52 |  | 
Cc1ccc(S(=O)(=O)N2CCC(c3nnc(SCC(=O)Nc4ccc(C)cc4C)n3C)CC2)cc1 [Compound 12j, 1-(4-toluenesulfonyl)-4-{3-[N-(2,4-dimethylphenyl)-2-ethanamoylthio]-4-methyl-4H-1,2,4-triazol-5-yl} piperidine] | 72.25 ± 1.85 | 365.9 ± 1.42 | 23.54 ± 0.85 | 88.36 ± 0.79 | 94.63 ± 0.57 | 73.52 ± 1.65 | 37.62 ± 0.87 | excellent activity |  | 167.2 ± 1.34 |  | 
Cc1ccc(S(=O)(=O)N2CCC(c3nnc(SCC(=O)Nc4cc(C)ccc4C)n3C)CC2)cc1 [Compound 12k, 1-(4-toluenesulfonyl)-4-{3-[N-(2,5-dimethylphenyl)-2-ethanamoylthio]-4-methyl-4H-1,2,4-triazol-5-yl} piperidine] | 71.16 ± 1.64 | 385.6 ± 1.32 | 29.45 ± 0.72 | 65.27 ± 0.74 | 212.9 ± 0.59 | 76.15 ± 1.52 | 49.23 ± 0.94 |  |  | 165.4 ± 1.27 |  | 
